≈ marks a conversion by molar mass, not a printed value.

In ChEMBL document CHEMBL1136816, “Synthesis and evaluation of ether and halogenated derivatives of mannopeptimycin glycopeptide antibiotics” (2003) one finds MIC data, which are given here for eight compounds.

Common to all, as to assay type: functional
For test [1], the system named is Staphylococcus aureus. The experiment in a line: In vitro minimum inhibitory concentration against Staphylococcus aureus; 2-4.
The subject of test [2] is Enterococcus sp. The experiment in a line: In vitro minimum inhibitory concentration against Enterococcus species; 2-4.
The test system of test [3] is Streptococcus sp. Kind of test: In vitro minimum inhibitory concentration against Streptococcus species; </=0.06-0.12.
The test system of test [4] is Enterococcus sp. The experiment in a line: In vitro minimum inhibitory concentration against Enterococcus species.
For test [5], the system named is Staphylococcus aureus. Kind of test: In vitro minimum inhibitory concentration against Staphylococcus aureus.
Test [6] deals with Streptococcus sp. The experiment in a line: In vitro minimum inhibitory concentration against Streptococcus species.
The test system of test [7] is Enterococcus sp. The experiment in a line: In vitro minimum inhibitory concentration against Enterococcus species; 2-16.
Test [8] deals with Streptococcus sp. Kind of test: In vitro minimum inhibitory concentration against Streptococcus species; </=0.12-0.5.
Test [9] concerns Staphylococcus aureus. The experiment in a line: In vitro minimum inhibitory concentration against Staphylococcus aureus; 1-4.
Test [10] deals with Enterococcus sp. The experiment in a line: In vitro minimum inhibitory concentration against Enterococcus species; 0.5->64.
The test system of test [11] is Streptococcus sp. The experiment in a line: In vitro minimum inhibitory concentration against Streptococcus species; 0.12-0.5.
For test [12], the system named is Streptococcus sp. The experiment in a line: In vitro minimum inhibitory concentration against Streptococcus species; 0.5-2.
Test [13] concerns Enterococcus sp. The experiment in a line: In vitro minimum inhibitory concentration against Enterococcus species; 4-32.

In general, MIC refers to the lowest concentration that inhibits growth of the organism. With `C[C@@H](c1ccccc1)[C@@H]1NC(=O)CNC(=O)[C@H](CO)NC(=O)[C@@H]([C@@H](O)[C@@H]2CN=C(N)N2[C@H]2O[C@H](CO)[C@@H](O)[C@H](O)[C@@H]2O)NC(=O)[C@H]([C@@H](O)[C@@H]2CN=C(N)N2)NC(=O)[C@@H](Cc2ccc(O[C@H]3O[C@H](CO)[C@@H](O[C@H]4O[C@H](COCc5ccc(Oc6ccccc6)cc5)[C@@H](O)[C@H](O)[C@@H]4O)[C@H](O)[C@@H]3O)cc2)NC1=O`, the MIC in the test with Staphylococcus aureus [1] is 2 µg/mL (≈ 1.35 µM); against Enterococcus sp. [2], 2 µg/mL (≈ 1.35 µM); in the test with Streptococcus sp. [3] it was ≤ 0.06 µg/mL.
Take `C[C@@H](c1ccccc1)[C@@H]1NC(=O)CNC(=O)[C@H](CO)NC(=O)[C@@H]([C@@H](O)[C@@H]2CN=C(N)N2[C@H]2O[C@H](CO)[C@@H](O)[C@H](O)[C@@H]2O)NC(=O)[C@H]([C@@H](O)[C@@H]2CN=C(N)N2)NC(=O)[C@@H](Cc2ccc(O[C@H]3O[C@H](CO)[C@@H](O[C@H]4O[C@H](CO)[C@@H](O)[C@H](O)[C@@H]4O)[C@H](O)[C@@H]3O)c(I)c2)NC1=O`: the MIC against Enterococcus sp. [4], against Staphylococcus aureus [5] and against Streptococcus sp. [6] was > 128 µg/mL in each case.
With `C[C@@H](c1ccccc1)[C@@H]1NC(=O)CNC(=O)[C@H](CO)NC(=O)[C@@H]([C@@H](O)[C@@H]2CN=C(N)N2[C@H]2O[C@H](CO)[C@@H](O)[C@H](O)[C@@H]2O)NC(=O)[C@H]([C@@H](O)[C@@H]2CN=C(N)N2)NC(=O)[C@@H](Cc2ccc(O[C@H]3O[C@H](CO)[C@@H](O[C@H]4O[C@H](CO)[C@@H](OCC=C(c5ccccc5)c5ccccc5)[C@H](O)[C@@H]4O)[C@H](O)[C@@H]3O)cc2)NC1=O`, the MIC was 2 µg/mL (≈ 1.34 µM) with Staphylococcus aureus [1], 2 µg/mL (≈ 1.34 µM) in the test on Enterococcus sp. [2] and ≤ 0.06 µg/mL against Streptococcus sp. [6].
On to `C[C@@H](c1ccccc1)[C@@H]1NC(=O)CNC(=O)[C@H](CO)NC(=O)[C@@H]([C@@H](O)[C@@H]2CN=C(N)N2[C@H]2O[C@H](CO)[C@@H](O)[C@H](O)[C@@H]2O)NC(=O)[C@H]([C@@H](O)[C@@H]2CN=C(N)N2)NC(=O)[C@@H](Cc2ccc(O[C@H]3O[C@H](CO)[C@@H](O[C@H]4O[C@H](COCC=C(c5ccccc5)c5ccccc5)[C@@H](O)[C@H](O)[C@@H]4O)[C@H](O)[C@@H]3O)cc2)NC1=O`, for which the MIC is 2 µg/mL (≈ 1.34 µM) with Staphylococcus aureus [5], 2 µg/mL (≈ 1.34 µM) in the test on Enterococcus sp. [2] and ≤ 0.06 µg/mL with Streptococcus sp. [6].
Regarding `COc1ccc(COC[C@H]2O[C@H](O[C@H]3[C@H](O)[C@H](O)[C@@H](Oc4ccc(C[C@H]5NC(=O)[C@H]([C@@H](C)c6ccccc6)NC(=O)CNC(=O)[C@H](CO)NC(=O)[C@@H]([C@@H](O)[C@@H]6CN=C(N)N6[C@H]6O[C@H](CO)[C@@H](O)[C@H](O)[C@@H]6O)NC(=O)[C@H]([C@@H](O)[C@@H]6CN=C(N)N6)NC5=O)cc4)O[C@@H]3CO)[C@@H](O)[C@@H](O)[C@@H]2O)c2ccccc12`, the MIC was 2 µg/mL (≈ 1.36 µM) in the test with Enterococcus sp. [7], ≤ 0.12 µg/mL in the test on Streptococcus sp. [8] and 1 µg/mL (≈ 0.682 µM) against Staphylococcus aureus [9].
Take `CN[C@H](CC(C)C)C(=O)N[C@H]1C(=O)N[C@@H](CC(N)=O)C(=O)N[C@H]2C(=O)N[C@H]3C(=O)N[C@H](C(=O)N[C@H](C(=O)O)c4cc(O)cc(O)c4-c4cc3ccc4O)[C@H](O)c3ccc(c(Cl)c3)Oc3cc2cc(c3O[C@@H]2O[C@H](CO)[C@@H](O)[C@H](O)[C@H]2O[C@H]2C[C@](C)(N)[C@H](O)[C@H](C)O2)Oc2ccc(cc2Cl)[C@H]1O` [VANCOMYCIN]: the values for the MIC in the test on Enterococcus sp. [10] and against Streptococcus sp. [11] were 0.5 µg/mL (≈ 0.345 µM) and 0.12 µg/mL (≈ 0.0828 µM), respectively.
Regarding `COc1ccc(COC[C@H]2O[C@H](O[C@H]3[C@H](O)[C@H](O)[C@@H](Oc4ccc(C[C@H]5NC(=O)[C@H]([C@@H](C)c6ccccc6)NC(=O)CNC(=O)[C@H](CO)NC(=O)[C@@H]([C@@H](O)[C@@H]6CN=C(N)N6[C@H]6O[C@H](CO)[C@@H](O)[C@H](O)[C@@H]6O)NC(=O)[C@H]([C@@H](O)[C@@H]6CN=C(N)N6)NC5=O)cc4)O[C@@H]3CO)[C@@H](O)[C@@H](O)[C@@H]2O)cc1`, the MIC against Staphylococcus aureus [5] turned out to be 4 µg/mL (≈ 2.83 µM); with Streptococcus sp. [12], 0.5 µg/mL (≈ 0.353 µM); in the test with Enterococcus sp. [13], 4 µg/mL (≈ 2.83 µM).
For `Cc1ccc(COC[C@H]2O[C@H](O[C@H]3[C@H](O)[C@H](O)[C@@H](Oc4ccc(C[C@H]5NC(=O)[C@H]([C@@H](C)c6ccccc6)NC(=O)CNC(=O)[C@H](CO)NC(=O)[C@@H]([C@@H](O)[C@@H]6CN=C(N)N6[C@H]6O[C@H](CO)[C@@H](O)[C@H](O)[C@@H]6O)NC(=O)[C@H]([C@@H](O)[C@@H]6CN=C(N)N6)NC5=O)cc4)O[C@@H]3CO)[C@@H](O)[C@@H](O)[C@@H]2O)cc1`, the MIC in the test with Staphylococcus aureus [5] amounted to 2 µg/mL (≈ 1.43 µM); in the test on Enterococcus sp. [2] it was 2 µg/mL (≈ 1.43 µM); against Streptococcus sp. [11], 0.12 µg/mL (≈ 0.0857 µM).
